Measured values as given in US12226424B2, “Target protein degradation compounds, their anti-tumor use, their intermediates and use of intermediates” (ShanghaiTech University, priority 2018, dated 2025).

system: CDK4/6 protein; test: Western-blot determination of CDK4/6 protein degradation (DC50) in T-47D cells; type: cell-based, human; conditions: 24 h drug treatment, read-out: DC50(nM)/T-47D cell line

| DC50 [nM] | Compound |
| --- | --- |
| < 1 | CN(C)C(=O)c1cc2cnc(Nc3ccc(N4CCN(C(=O)CCSc5cccc6c5CN(C5CCC(=O)NC5=O)C6=O)CC4)cn3)nc2n1C1CCCC1 (stereo not drawn) [SIAIS219087, 7-cyclopentyl-2-((5-(4-(3-((2-(2,6-dioxopiperidin-3-yl)-1-oxoisoindolin-4-yl)thio)propanoyl)piperazin-1-yl)pyridin-2-yl)amino)-N,N-dimethyl-7H-pyrrolo[2,3-d]pyrimidine-6-carboxamide] |
| 1 to 10 | CN(C)C(=O)c1cc2cnc(Nc3ccc(N4CCN(C(=O)CCCSc5cccc6c5CN(C5CCC(=O)NC5=O)C6=O)CC4)cn3)nc2n1C1CCCC1 (stereo not drawn) [SIAIS219088, 7-cyclopentyl-2-((5-(4-(4-((2-(2,6-dioxopiperidin-3-yl)-1-oxoisoindolin-4-yl)thio)butanoyl)piperazin-1-yl)pyridin-2-yl)amino)-N,N-dimethyl-7H-pyrrolo[2,3-d]pyrimidine-6-carboxamide] |
| 0.04 to 0.2 | CN(C)C(=O)c1cc2cnc(Nc3ccc(N4CCN(C(=O)COCCOCCSc5cccc6c5CN(C5CCC(=O)NC5=O)C6=O)CC4)cn3)nc2n1C1CCCC1 (stereo not drawn) [SIAIS219107, 7-cyclopentyl-2-((5-(4-(2-(2-(2-((2-(2,6-dioxopiperidin-3-yl)-1-oxoisoindolin-4-yl)thio)ethoxy)ethoxy)acetyl)piperazin-1-yl)pyridin-2-yl)amino)-N,N-dimethyl-7H-pyrrolo[2,3-d]pyrimidine-6-carboxamide] |
| 0.04 to 0.2 | CN(C)C(=O)c1cc2cnc(Nc3ccc(N4CCN(C(=O)COCCOCCOCCOCCOCCSc5cccc6c5CN(C5CCC(=O)NC5=O)C6=O)CC4)cn3)nc2n1C1CCCC1 (stereo not drawn) [SIAIS219110, 7-cyclopentyl-2-((5-(4-(17-((2-(2,6-dioxopiperidin-3-yl)-1-oxoisoindolin-4-yl)thio)-3,6,9,12,15-pentaoxaheptadecanoyl)piperazin-1-yl)pyridin-2-yl)amino)-N,N-dimethyl-7H-pyrrolo[2,3-d]pyrimidine-6-carboxamide] |
| 0.05 to 0.5 | Cc1nc2c(F)cc(-c3nc(Nc4ccc(CN5CCN(C(=O)CCCCCSc6cccc7c6CN(C6CCC(=O)NC6=O)C7=O)CC5)cn4)ncc3F)cc2n1C(C)C (stereo not drawn) [SIAIS262168, 3-(4-((6-(4-((6-((5-fluoro-4-(4-fluoro-1-isopropyl-2-methyl-1H-benzo[d]imidazol-6-yl)pyrimidin-2-yl)amino)pyridin-3-yl)methyl)piperazin-1-yl)-6-oxohexyl)thio)-1-oxoisoindolin-2-yl)piperidine-2,6-dione] |
| 1 to 10 | CN(C)C(=O)c1cc2cnc(Nc3ccc(N4CCN(C(=O)COCCOCCOCCOCCSc5cccc6c5C(=O)N(C5CCC(=O)NC5=O)C6=O)CC4)cn3)nc2n1C1CCCC1 (stereo not drawn) [SIAIS219114, 7-cyclopentyl-2-((5-(4-(14-((2-(2,6-dioxopiperidin-3-yl)-1,3-dioxoisoindolin-4-yl)thio)-3,6,9,12-tetraoxatetradecanoyl)piperazin-1-yl)pyridin-2-yl)amino)-N,N-dimethyl-7H-pyrrolo[2,3-d]pyrimidine-6-carboxamide] |
| 1 to 10 | CN(C)C(=O)c1cc2cnc(Nc3ccc(N4CCN(C(=O)CCCSc5cccc6c5C(=O)N(C5CCC(=O)NC5=O)C6=O)CC4)cn3)nc2n1C1CCCC1 (stereo not drawn) [SIAIS219102, 7-cyclopentyl-2-((5-(4-(4-((2-(2,6-dioxopiperidin-3-yl)-1,3-dioxoisoindolin-4-yl)thio)butanoyl)piperazin-1-yl)pyridin-2-yl)amino)-N,N-dimethyl-7H-pyrrolo[2,3-d]pyrimidine-6-carboxamide] |
| 100 to 500 | CC(=O)c1c(C)c2cnc(Nc3ccc(N4CCN(C(=O)C[S+]([O-])c5cccc6c5C(=O)N(C5CCC(=O)NC5=O)C6=O)CC4)cn3)nc2n(C2CCCC2)c1=O (stereo not drawn) [SIAIS151057, 4-((2-(4-(6-((6-acetyl-8-cyclopentyl-5-methyl-7-oxo-7,8-dihydropyrido[2,3-d]pyrimidin-2-yl)amino)pyridin-3-yl)piperazin-1-yl)-2-oxoethyl)sulfinyl)-2-(2,6-dioxopiperidin-3-yl)isoindoline-1,3-dione] |
| 1 to 10 | CN(C)C(=O)c1cc2cnc(Nc3ccc(N4CCN(C(=O)CCCCSc5cccc6c5CN(C5CCC(=O)NC5=O)C6=O)CC4)cn3)nc2n1C1CCCC1 (stereo not drawn) [SIAIS219089, 7-cyclopentyl-2-((5-(4-(5-((2-(2,6-dioxopiperidin-3-yl)-1-oxoisoindolin-4-yl)thio)pentanoyl)piperazin-1-yl)pyridin-2-yl)amino)-N,N-dimethyl-7H-pyrrolo[2,3-d]pyrimidine-6-carboxamide] |
| 1 to 10 | CC(=O)c1c(C)c2cnc(Nc3ccc(N4CCN(C(=O)CCCCSc5cccc6c5C(=O)N(C5CCC(=O)NC5=O)C6=O)CC4)cn3)nc2n(C2CCCC2)c1=O (stereo not drawn) [SIAIS184088, 4-((5-(4-(6-((6-acetyl-8-cyclopentyl-5-methyl-7-oxo-7,8-dihydropyrido[2,3-d]pyrimidin-2-yl)amino)pyridin-3-yl)piperazin-1-yl)-5-oxopentyl)thio)-2-(2,6-dioxopiperidin-3-yl)isoindoline-1,3-dione] |
| 1 to 10 | CC(=O)c1c(C)c2cnc(Nc3ccc(N4CCN(C(=O)COCCOCCOCCOCCOCCSc5cccc6c5C(=O)N(C5CCC(=O)NC5=O)C6=O)CC4)cn3)nc2n(C2CCCC2)c1=O (stereo not drawn) [SIAIS219062, 4-((17-(4-(6-((6-acetyl-8-cyclopentyl-5-methyl-7-oxo-7,8-dihydropyrido[2,3-d]pyrimidin-2-yl)amino)pyridin-3-yl)piperazin-1-yl)-17-oxo-3,6,9,12,15-pentaoxaheptadecyl)thio)-2-(2,6-dioxopiperidin-3-yl)isoindoline-1,3-dione] |

system: K562 cells (BCR-ABL positive); test: Half inhibitory concentration (IC50) on tumor cells, CCK-8, K562; conditions: Homo sapiens, K562, 48 h, read-out: IC50 (nM)/K562 cell line
Protocol: Determination of Half Inhibitory Concentration (IC50) of PROTAD Compounds on Tumor Cells
K562 cells were seeded in 100 μL of RPMI1640 complete medium at a density of 20,000 cells/well. 100 μL of the inoculated cells were treated with 100 μL diluted PROTAD compound of the present disclosure to be tested at 9 successively decreasing concentrations (starting at the highest concentration of 10 μM; 3-fold serial dilutions). After the cells were treated with the tested drugs for 48 hours, the cell viability determination was performed in accordance with CCK-8 reagent operating instructions. The negative control was DMSO, and positive control was a commercial inhibitor. After CCK-8 treatment for 2 h, the value of O.D.450 was measured using a microplate reader.

| IC50 [nM] | Compound |
| --- | --- |
| 0.09 | Cc1nc(Nc2ncc(C(=O)Nc3c(C)cccc3Cl)s2)cc(N2CCN(CCCSc3cccc4c3CN(C3CCC(=O)NC3=O)C4=O)CC2)n1 (stereo not drawn) [SIAIS171181, N-(2-chloro-6-methylphenyl)-2-((6-(4-(3-((2-(2,6-dioxopiperidin-3-yl)-1-oxoisoindolin-4-yl)thio)propyl)piperazin-1-yl)-2-methylpyrimidin-4-yl)amino)thiazole-5-carboxamide] |
| 1.78 | Cc1ccc(C(=O)Nc2ccc(CN3CCN(C(=O)CSc4cccc5c4CN(C4CCC(=O)NC4=O)C5=O)CC3)c(C(F)(F)F)c2)cc1C#Cc1cnc2cccnn12 (stereo not drawn) [SIAIS220051, N-(4-((4-(2-((2-(2,6-dioxopiperidin-3-yl)-1-oxoisoindolin-4-yl)thio)acetyl)piperazin-1-yl)methyl)-3-(trifluoromethyl)phenyl)-3-(imidazo[1,2-b]pyridazin-3-ylethynyl)-4-methylbenzamide] |
| 2.62 | Cc1ccc(C(=O)Nc2ccc(CN3CCN(C(=O)CCSc4cccc5c4CN(C4CCC(=O)NC4=O)C5=O)CC3)c(C(F)(F)F)c2)cc1C#Cc1cnc2cccnn12 (stereo not drawn) [SIAIS220052, N-(4-((4-(3-((2-(2,6-dioxopiperidin-3-yl)-1-oxoisoindolin-4-yl)thio)propanoyl)piperazin-1-yl)methyl)-3-(trifluoromethyl)phenyl)-3-(imidazo[1,2-b]pyridazin-3-ylethynyl)-4-methylbenzamide] |
| 2.97 | Cc1ccc(C(=O)Nc2ccc(CN3CCN(C(=O)CCSc4cccc5c4C(=O)N(C4CCC(=O)NC4=O)C5=O)CC3)c(C(F)(F)F)c2)cc1C#Cc1cnc2cccnn12 (stereo not drawn) [SIAIS220046, N-(4-((4-(3-((2-(2,6-dioxopiperidin-3-yl)-1,3-dioxoisoindolin-4-yl)thio)propanoyl)piperazin-1-yl)methyl)-3-(trifluoromethyl)phenyl)-3-(imidazo[1,2-b]pyridazin-3-ylethynyl)-4-methylbenzamide] |
